Measurements from article doi:10.1101/2024.09.04.610228v1 (bioRxiv, 2024).
Peptide text beside a SMILES is read from it.

What was measured:
[1] = biological target: FOXO4 FHD (Homo sapiens, UniProt P98177); test: FPA competition assay; assay type: binding; details: FPA competition analysis
[2] = system: FOXO4 foci in senescent A375 cells; test: Immunofluorescence of FOXO4 foci in nuclei of senescent A375 cells; assay type: cell-based, Human; details: doxorubicin-induced senescent A375 cells; 30 μM CPP-CAND, 24 h; vs DMSO mock
[3] = system: caspase 3/7; test: Caspase 3/7 activity; assay type: cell-based, Human; details: senescent A375 cells; 20 μM, 24 h
[4] = system: A375 cells; test: MTS cell viability assay, dividing vs cisplatin; assay type: cell-based, Human; details: dividing vs CDDP (4 µM)-induced senescent A375 cells

Chain of FOXO4 FHD (P98177 95-195): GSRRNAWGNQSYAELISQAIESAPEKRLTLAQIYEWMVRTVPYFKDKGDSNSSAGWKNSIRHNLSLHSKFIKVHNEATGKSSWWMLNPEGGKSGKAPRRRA

CC[C@H](C)[C@H](NC(=O)[C@H](C)NC(=O)[C@H](C)NC(=O)[C@@H]1CCCN1C(=O)[C@H](CO)NC(=O)[C@H](CC(C)C)NC(=O)[C@H](CCSC)NC(=O)[C@H](CC(C)C)NC(=O)[C@H](C)N)C(=O)N[C@@H](C)C(=O)N[C@@H](CCC(N)=O)C(=O)N[C@@H](Cc1c[nH]c2ccccc12)C(=O)N[C@@H](Cc1ccccc1)C(=O)N[C@H](C(=O)N[C@@H](C)C(=O)N[C@@H](C)C(=O)O)[C@@H](C)O [CAND] (H-ALMLSPAAIAQWFTAA-OH; N-terminus and C-terminus assumed)
Enhancement of inhibitory ability compared to p53 TAD PEP [1]: approximately three-fold

CC[C@H](C)[C@H](NC(=O)[C@H](C)NC(=O)[C@H](C)NC(=O)[C@@H]1CCCN1C(=O)[C@H](CO)NC(=O)[C@H](CC(C)C)NC(=O)[C@H](CCSC)NC(=O)[C@H](CC(C)C)NC(=O)[C@H](C)NC(=O)[C@@H]1CCCN1C(=O)[C@@H]1CCCN1C(=O)[C@H](CCCNC(=N)N)NC(=O)[C@H](CCCNC(=N)N)NC(=O)[C@H](CCCNC(=N)N)NC(=O)[C@H](CCC(N)=O)NC(=O)[C@H](CCCNC(=N)N)NC(=O)[C@H](CCCNC(=N)N)NC(=O)[C@H](CCCCN)NC(=O)[C@H](CCCCN)NC(=O)[C@H](CCCNC(=N)N)NC(=O)CN)C(=O)N[C@@H](C)C(=O)N[C@@H](CCC(N)=O)C(=O)N[C@@H](Cc1c[nH]c2ccccc12)C(=O)N[C@@H](Cc1ccccc1)C(=O)N[C@H](C(=O)N[C@@H](C)C(=O)N[C@@H](C)C(=O)O)[C@@H](C)O [CPP-CAND] (H-GRKKRRQRRRPPALMLSPAAIAQWFTAA-OH; N-terminus and C-terminus assumed)
Reduction in number of FOXO4 foci in nuclei [2]: approximately 7.1 fold | Caspase 3/7 activity (percentage of green fluorescent cells), senescent cells [3]: 44% | SI75 (selectivity index from IC75 values) [4]: approximately 2.4
